# Laboratory results: US20110237499A1, “HYBRID TRIPYRROLE-OCTAARGININE COMPOUNDS AND THEIR USE AS MEDICAMENT IN THE TREATMENT OF CANCER AND MICROBIAL ILLNESSES” (priority 2008, published 2011)
# Square brackets hold non-standard residues; d marks the D form. Peptide text beside a SMILES is read from it. * marks the point of attachment. FITC = O=C1OC2(c3ccc(O)cc3Oc3cc(O)ccc32)c2ccc(NC(=S)*)cc21; Ahx = NCCCCCC(=O)O
# Experiments:
# HeLa 229 cells = test: cells; type: cell-based; settings: 48 hours incubation
# Method: Preliminary cytotoxicity studies have been performed using HeLa 229 cells, to verify the possible effect of the presence of octaarginine chain on the biological activity. These studies have been performed following an incubation during 48 hours and they were later evaluated by cell staining by crystal violet and later acetylation.
# HeLa cells = test: Cellular internalization assay in live HeLa cells (fluorescence microscopy); type: cell-based
# Method: The internalization assays were performed in live HeLa cells.
# The internalization assays were performed in live HeLa cells, recording the fluorescence images after 30 min, 90 min and 3 h.
SMILES,% Inhibition of the cellular growth (HeLa 229 cells; concentration 5.87 μM),"extent of internalization (intracellular fluorescence) (HeLa cells; images after 30 min, 90 min and 3 h)","intracellular localization of the fluorescence signal (HeLa cells; incubation 90 min at 37° C., FIG. 2)","inhibition at 176.5 µM (HeLa 229 cells; Homo sapiens, HeLa 229, concentration 176.5 μM, read-out: % Inhibition of the cellular growth)"
N=C(N)NCCC[C@H](NC(=O)[C@H](CCCNC(=N)N)NC(=O)[C@H](CCCNC(=N)N)NC(=O)[C@H](CCCNC(=N)N)NC(=O)[C@H](CCCNC(=N)N)NC(=O)[C@H](CCCNC(=N)N)NC(=O)[C@H](CCCNC(=N)N)NC(=O)[C@H](CCCNC(=N)N)NC(=O)CCCCCNC(=O)[C@H](CCCCN)NC(=O)CCCCCNC(=S)Nc1ccc2c(c1)C(=O)OC21c2ccc(O)cc2Oc2cc(O)ccc21)C(N)=O [1B] ({FITC-Ahx}-K[Ahx]RRRRRRRR-NH2),1 ± 2%,the fluorescence is intense,exclusively localized in the cytoplasm,–
CC(=O)Nc1c[nH]c(C(=O)Nc2cc(C(=O)Nc3cc(C(=O)NCCCN(C)C)n(C)c3)n(C)c2)c1 [compound 9],–,–,–,4 ± 3%
